biological target: Histamine H3 receptor (Homo sapiens, UniProt Q9Y5N1); assay: not given
Sequence (Q9Y5N1 whole entry): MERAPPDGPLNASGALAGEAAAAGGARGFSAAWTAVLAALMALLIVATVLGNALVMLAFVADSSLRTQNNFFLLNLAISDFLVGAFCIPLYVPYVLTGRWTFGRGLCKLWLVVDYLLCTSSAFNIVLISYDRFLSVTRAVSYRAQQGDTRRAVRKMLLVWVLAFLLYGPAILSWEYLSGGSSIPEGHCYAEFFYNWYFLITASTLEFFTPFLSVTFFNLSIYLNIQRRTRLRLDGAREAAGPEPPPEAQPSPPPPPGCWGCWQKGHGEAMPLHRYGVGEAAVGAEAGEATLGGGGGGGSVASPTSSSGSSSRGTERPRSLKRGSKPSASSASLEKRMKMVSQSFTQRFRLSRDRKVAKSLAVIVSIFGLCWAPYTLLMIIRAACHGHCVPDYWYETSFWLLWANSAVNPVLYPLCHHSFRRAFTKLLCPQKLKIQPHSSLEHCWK

Ki [nM] | SMILES
2800 | Cc1ccc(CN2CCC(NC(=O)N(CC(=O)C(C)(C)O)Cc3ccc(-c4cccc(C#N)c4)cc3)CC2)cc1
> 1000 | Cc1ccc(CN2CCC(NC(=O)N(CC(=O)C(C)(C)O)Cc3ccc(-c4ccccc4)cc3)CC2)cc1
> 1000 | CCC(CO)(CO)NC(=O)N(CCC1CCN(Cc2ccc(C)cc2)CC1)Cc1ccc(-c2ccc(F)cc2)cc1
> 1000 | Cc1ccc(CN2CCC(CCN(Cc3ccc(-c4ccc(F)cc4)cc3)C(=O)NC(C)(C)CO)CC2)cc1
6510 | COc1ccc(-c2ccc(CN(CCC3CCN(Cc4ccc(C)cc4)CC3)C(=O)NC(C)C)cc2)cc1
> 1000 | COc1ccccc1-c1ccc(CN(CCC2CCN(Cc3ccc(C)cc3)CC2)C(=O)NC(C)C)cc1
853 | Cc1ccc(CN2CCC(CCN(Cc3ccc(-c4cccc(C#N)c4)cc3)C(=O)NC(C)C)CC2)cc1
2080 | CC(=O)OCC(C)(C)NC(=O)N(CCC1CCN(Cc2ccc(C)cc2)CC1)Cc1ccc(-c2ccc(F)cc2)cc1
1630 | CC(=O)OCC(C)(C)NC(=O)N(CCC1CCN(Cc2ccc(C)cc2)CC1)Cc1ccc(-c2cccc(C#N)c2)cc1
1130 | CC(=O)OCC(C)(C)NC(=O)N(CCC1CCN(Cc2ccc(C)cc2)CC1)Cc1ccc(-c2ccccc2)cc1
899 | CCC(CO)(CO)NC(=O)N(CCC1CCN(Cc2ccc(C)cc2)CC1)Cc1ccc(-c2ccc(OC)cc2)cc1
807 | CCC(COC(C)=O)(COC(C)=O)NC(=O)N(CCC1CCN(Cc2ccc(C)cc2)CC1)Cc1ccc(-c2ccccc2)cc1
6680 | COc1ccccc1-c1ccc(CN(CCC2CCN(Cc3ccc(C)cc3)CC2)C(=O)NC(C)(C)CO)cc1
5150 | COc1ccc(-c2ccc(CNC(=O)NC3CCN(Cc4ccc(C)cc4)CC3)cc2)cc1
> 1000 | COc1ccccc1-c1ccc(CNC(=O)NC2CCN(Cc3ccc(C)cc3)CC2)cc1
> 1000 | Cc1ccc(CN2CCC(NC(=O)NCc3ccc(-c4cccc(C#N)c4)cc3)CC2)cc1

Ki [nM] | SMILES
1420 | Cc1ccc(CN2CCC(NC(=O)N(CC(=O)C(C)(C)O)Cc3ccc(-c4ccc(F)cc4)cc3)CC2)cc1
581 | COc1ccc(-c2ccc(CN(CC(=O)C(C)(C)O)C(=O)NC3CCN(Cc4ccc(C)cc4)CC3)cc2)cc1
2140 | CCC(CO)(CO)NC(=O)N(CCC1CCN(Cc2ccc(C)cc2)CC1)Cc1ccc(-c2ccccc2OC)cc1
8800 | CCC(CO)(CO)NC(=O)N(CCC1CCN(Cc2ccc(C)cc2)CC1)Cc1ccc(-c2cccc(C#N)c2)cc1
779 | CCC(COC(C)=O)(COC(C)=O)NC(=O)N(CCC1CCN(Cc2ccc(C)cc2)CC1)Cc1ccc(-c2ccc(OC)cc2)cc1
1010 | COc1ccc(-c2ccc(CN(CCC3CCN(Cc4ccc(C)cc4)CC3)C(=O)NC(C)(C)COC(C)=O)cc2)cc1
1050 | COc1ccccc1-c1ccc(CN(CCC2CCN(Cc3ccc(C)cc3)CC2)C(=O)NC(C)(C)COC(C)=O)cc1
548 | CCC(COC(C)=O)(COC(C)=O)NC(=O)N(CCC1CCN(Cc2ccc(C)cc2)CC1)Cc1ccc(-c2ccc(F)cc2)cc1
1160 | Cc1ccc(CN2CCC(CCN(Cc3ccc(-c4cccc(C#N)c4)cc3)C(=O)NC(C)(C)CO)CC2)cc1
> 1000 | Cc1ccc(CN2CCC(NC(=O)NCc3ccc(-c4ccccc4)cc3)CC2)cc1
629 | CCC(COC(C)=O)(COC(C)=O)NC(=O)N(CCC1CCN(Cc2ccc(C)cc2)CC1)Cc1ccc(-c2ccccc2OC)cc1
1310 | CCC(COC(C)=O)(COC(C)=O)NC(=O)N(CCC1CCN(Cc2ccc(C)cc2)CC1)Cc1ccc(-c2cccc(C#N)c2)cc1
9990 | COc1ccccc1-c1ccc(CN(CC(=O)C(C)(C)O)C(=O)NC2CCN(Cc3ccc(C)cc3)CC2)cc1
> 1000 | Cc1ccc(CN2CCC(CCN(Cc3ccc(-c4ccccc4)cc3)C(=O)NC(C)C)CC2)cc1
9260 | COc1ccc(-c2ccc(CN(CCC3CCN(Cc4ccc(C)cc4)CC3)C(=O)NC(C)(C)CO)cc2)cc1

biological target: Melanin-concentrating hormone receptor 1 (Homo sapiens, UniProt Q99705); assay: biochemical; format: cell-based, HEK293
Sequence (Q99705 whole entry): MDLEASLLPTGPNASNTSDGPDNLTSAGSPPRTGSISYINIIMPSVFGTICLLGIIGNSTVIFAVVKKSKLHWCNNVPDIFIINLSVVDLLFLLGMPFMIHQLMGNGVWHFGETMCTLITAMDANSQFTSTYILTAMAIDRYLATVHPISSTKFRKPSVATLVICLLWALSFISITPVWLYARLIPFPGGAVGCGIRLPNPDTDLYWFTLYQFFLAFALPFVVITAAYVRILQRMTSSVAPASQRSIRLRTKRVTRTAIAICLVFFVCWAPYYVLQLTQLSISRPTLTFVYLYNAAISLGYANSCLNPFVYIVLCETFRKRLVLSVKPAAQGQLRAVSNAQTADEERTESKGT
Description: Displacement of [3H]SNAP-7941 from human MCHR1 expressed in HEK cells

Ki [nM] | SMILES
> 1000 | Cc1ccc(CN2CCC(NC(=O)N(CC(=O)C(C)(C)O)Cc3ccc(-c4ccccc4)cc3)CC2)cc1
> 1000 | COc1ccccc1-c1ccc(CN(CCC2CCN(Cc3ccc(C)cc3)CC2)C(=O)NC(C)C)cc1
> 1000 | COc1ccc(-c2ccc(CN(CC(=O)C(C)(C)O)C(=O)NC3CCN(Cc4ccc(C)cc4)CC3)cc2)cc1

From ChEMBL document CHEMBL1268975, “Building a MCHR1 homology model provides insight into the receptor-antagonist contacts that are important for the development of new anti-obesity agents” (Bioorg Med Chem, 2010)
